Measurements as given in patent US20030157704A1, “Reagents and methods for identifying and modulating expression of genes regulated by CDK inhibitors” (priority 2001, published 2003).

Assays:
NK4 promoter = assay: Luciferase assay in LuNK4p21 cell line (NK4 promoter-luciferase, IPTG-inducible p21); type: cell-based, human
Method: This assay was performed as follows. Cells were plated at a density of 40,000 cells/well in 12 well plates in 1 mL of media containing penicillin/streptomycin, glutamine and 10% fetal calf serum (FCS). After attachment, cells were treated with 50 μM IPTG or left untreated for different periods of time. Luciferase activity was then measured as described in Example 8 above. An additional aliquot was removed from the cell lysate to measure protein concentration using the Bio-Rad protein assay kit (Bradford assay). Luciferase activity for each sample was normalized to protein content and expressed as luciferase activity/μg protein.
Luciferase assays were performed substantially as described in Example 9. Luciferase activity was measured after 16 hrs of incubation with or without 50 μM IPTG, followed by an additional 20 hr treatment in the presence or in the absence of 20 mM sodium salicylate, 1 mM sulindac, or 10 mM aspirin. […] NSAID concentrations were based on the pharmacologic concentrations of these agents in the serum of patients required for their anti-inflammatory properties (Yin et al., 1998, ibid.).

p21-inducible genes = assay: RT-PCR of endogenous p21-inducible genes in LuNK4p21 cells; type: cell-based, human
Method: To determine whether NFκB-inhibiting NSAID inhibited not only the induction of transcription from the NK4 promoter but also RNA expression of the endogenous p21-inducible genes, LuNK4p21 cells were plated at 125,000 cells per well in 6-well plates and were either untreated or treated with 50 μM IPTG for 48 hrs (the period of time required for maximal stimulation of p21-inducible genes; Chang et al., 2000, Proc. Natl. Acad. Sci. USA 97: 4291-4296), in the presence or in the absence of sulindac, at 250 μM, 500 μM or 1 mM concentrations. After this incubation, RNA was extracted from the cells using Qiagen RNeasy Mini Kit, and relative RNA levels of several p21-inducible genes were determined by reverse transcription-PCR (RT-PCR), essentially as described by Noonan et al. (1990, Proc. Natl. Acad. Sci. USA 87: 7160-7164), except that β-actin rather than β2-microglobulin was used for cDNA normalization. The PCR cycles were as follows: for the 1st cycle, 3 min for denaturation, 2 min for annealing and 2 min for extension, and the rest of cycles, 30 sec for denaturation; 30 sec for annealing; and 1 min for extension.

CDK4 = CDK4 (UniProt P11802); assay: cell-based or functional assay
Chain of CDK4 (P11802 2-303 limits assumed): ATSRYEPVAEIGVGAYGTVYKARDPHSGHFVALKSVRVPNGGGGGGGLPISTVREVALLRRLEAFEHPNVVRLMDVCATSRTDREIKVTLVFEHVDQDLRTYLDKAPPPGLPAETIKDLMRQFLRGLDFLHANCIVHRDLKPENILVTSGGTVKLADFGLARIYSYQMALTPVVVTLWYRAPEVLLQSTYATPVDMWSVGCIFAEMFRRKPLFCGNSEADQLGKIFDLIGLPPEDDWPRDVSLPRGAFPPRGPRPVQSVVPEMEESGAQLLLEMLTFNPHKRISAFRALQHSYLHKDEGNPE

CDK6 = CDK6 (UniProt Q00534); assay: cell-based or functional assay
Chain of CDK6 (Q00534 whole entry): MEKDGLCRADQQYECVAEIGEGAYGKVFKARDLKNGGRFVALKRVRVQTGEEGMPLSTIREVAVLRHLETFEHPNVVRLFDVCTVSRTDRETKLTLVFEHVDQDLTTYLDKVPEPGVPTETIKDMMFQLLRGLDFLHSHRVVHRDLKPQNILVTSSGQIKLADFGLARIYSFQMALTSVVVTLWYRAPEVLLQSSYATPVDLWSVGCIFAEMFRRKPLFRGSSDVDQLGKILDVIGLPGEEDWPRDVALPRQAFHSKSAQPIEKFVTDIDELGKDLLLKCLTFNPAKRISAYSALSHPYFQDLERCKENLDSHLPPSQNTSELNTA

[1] = 25 μM NSAID for 20 hr after 16 hrs with 50 μM IPTG

Molecule: CC(=O)Oc1ccccc1C(=O)O [aspirin]
- induction of luciferase expression by IPTG (NK4 promoter; 10 mM aspirin for 20 hr after 16 hrs with 50 μM IPTG): completely or almost completely abolished

Molecule: CC(C)Cc1ccc(C(C)C(=O)O)cc1 (stereo not shown) [ibuprofen]
- induction of luciferase expression by IPTG (NK4 promoter; [1]): no significant difference

Molecule: COc1ccc2c(c1)c(CC(=O)O)c(C)n2C(=O)c1ccc(Cl)cc1 [indomethacin]
- induction of luciferase expression by IPTG (NK4 promoter; [1]): no significant difference

Molecule: O=C([O-])c1ccccc1O.[Na+] [sodium salicylate]
- induction of luciferase expression by IPTG (NK4 promoter; 20 mM sodium salicylate for 20 hr after 16 hrs with 50 μM IPTG): completely or almost completely abolished

Molecule: CC1=C(CC(=O)O)c2cc(F)ccc2/C1=C\c1ccc([S+](C)[O-])cc1 (stereo not shown) [sulindac]
- induction of luciferase expression by IPTG (NK4 promoter; 1 mM sulindac for 20 hr after 16 hrs with 50 μM IPTG): completely or almost completely abolished
- effects of IPTG on APP gene RNA (p21-inducible genes; 250 and 500 μM sulindac): diminished
- NK4 gene expression (RNA) (p21-inducible genes; absence of IPTG, sulindac 250 μM, 500 μM or 1 mM, 48 hrs): very little effect
- gene expression of all the other tested genes (p21-inducible genes; absence of IPTG, sulindac 250 μM-1 mM): dose-dependent increase
- t-TGase RNA (p21-inducible genes; compared with NK4, with and without IPTG, sulindac 250 μM-1 mM): Very similar results
- p21-induced transcription of most of the tested genes (p21-inducible genes; moderate dose of sulindac (250 μM)): inhibits the ability of p21 to induce transcription
- effects of IPTG on CTGF gene RNA (p21-inducible genes; only by 250 μM sulindac): diminished
- effects of IPTG on Mac2-binding protein (Mac2-BP) gene RNA (p21-inducible genes; only by 250 μM sulindac): diminished
- effects of IPTG on p66Shc gene RNA (p21-inducible genes; only by 250 μM sulindac): diminished
- NK4 RNA levels (p21-inducible genes; presence of 50 μM IPTG, all concentrations of sulindac (250 μM, 500 μM, 1 mM), 48 hrs): dose-dependent decrease
- gene expression of all the other tested genes (p21-inducible genes; presence of IPTG, highest dose of sulindac (1 mM)): did not decrease gene expression
- IPTG-induced RNA levels of prosaposin (p21-inducible genes; sulindac 250 μM, 500 μM, 1 mM): None of the tested sulindac concentrations produced a significant decrease
- IPTG-induced RNA levels of superoxide dismutase 2 (SOD2) (p21-inducible genes; sulindac 250 μM, 500 μM, 1 mM): None of the tested sulindac concentrations produced a significant decrease

Molecule: p16^Ink4A (from UniProt P42771 1-156)
- cells arrested in G1 after 24 hrs of IPTG treatment (FACS analysis of DNA content) (CDK4): 93%
- cells arrested in G1 after 24 hrs of IPTG treatment (FACS analysis of DNA content) (CDK6): 93%
